# Assay results taken from US11980633B2, “Method for treating cancer using a combination of DNA-damaging agents and DNA-PK inhibitors” (Vertex Pharmaceuticals Incorporated, priority 2016, dated 2024).
# Tested on: primary human tumors (esophageal, gastric)
# Assay: TCA: Compound B-1 with 5-FU, primary tumors
# Format: cell-based
# Method: In both studies, cell viability was assessed after 6 days in culture. Statistical analysis of the combination matrix was performed to assess whether synergy, additivity, or antagonism of the combination treatments were observed.
# Materials: Primary patient samples (See Tables 16 and 17, below) were excised from mice when they reached 500 mg to 1000 mg in size and processed immediately, or after overnight shipment. Tumors were serially passaged by subcutaneous implantation of 50 mg to 150 mg fragments into the flanks of immunocompromised (nude) mice. Tumors were used within the first 5 or 7 passages.
# Tumor Chemosensitivity Assay (TCA): Primary tumor samples were grown and serially passaged in immunocompromised mice. Tumors were mechanically dissociated into small fragments (1 mm to 2 mm) with scalpels in phosphate buffered saline (PBS or RPMI) and centrifuged at 200×g for 5 minutes at room temperature in 50 mL centrifuge tubes. Samples were resuspended in 10 mL of cell dissociation reagent and enzymatically digested with mechanical agitation for 1 to 3 hours at 37° C., 5% CO2 to a single cell suspension. Ten mL of complete RPMI-1640 media was added to the cell mixture and pipetted up and down 4 to 5 times. The mixture was then passed through a 70 μm or 100 μm mesh strainer to remove undigested tumor. The filtrate was then centrifuged 200×g for 5 minutes at room temperature and resuspended in 20 mL complete RPMI-1640. This cell suspension was slowly layered onto 20 mL of room temperature Histopaque and centrifuged at 400×g for 15 minutes at room temperature without a brake. The interface was transferred to a new 50 mL centrifuge tube and 15 mL of complete RPMI-1640 was added. This suspension was centrifuged at 200×g at room temperature, and the resulting pellet was resuspended in 10 mL of complete PC-1 media, except for pancreatic tumors in which case Pancreatic Medium was used. Cells were diluted in Trypan blue, and viable cells that excluded the dye were counted. Only the larger, tumor cells were included in the cell count. Cells were diluted in complete PC-1 or Pancreatic media, as appropriate for the cells, and were plated at 15,000 to 20,000 cells per well in 100-135 μL in ultra-low attachment U-bottom plates.
# Compound Addition: For these studies, a 10 mM stock of the DNA-PK inhibitor (Compound B-1 or Compound B-2) was made in DMSO and used to add to cells from most tumors with HP D300 Digital Dispenser (Tecan US, Morrisville, NC, USA), or diluted into the appropriate media (PC-1 or pancreatic media) as a 5-10× stock and added to cells (OVX001 and ENX001, 005). PC-1, pancreatic media, and chemotherapeutics were also added so that final well volume was 150 μL. Doxorubicin was made as DMSO stock of 1 or 10 mM and added to cells for most tumors with HP D300 Digital Dispenser, or diluted into PC-1 as 5-10× stock and added to cells (OVX001 and ENX001, 005). Cisplatin (cis-diammine platinum(II), dichloride) was prepared fresh to 10 mM in warm (60° C.) distilled water and diluted in PC-1 as a 5-10× stock. […] Different starting concentrations, dose ranges, and number of doses were used for each experiment based on the response data available at the time.
# For bleomycin experiments, combinations with Compound B-1 at all concentrations were run in triplicate. A 6×3 matrix was designed on one plate, consisting of a 2-point concentration range of 0.73 μM and 2.2 μM Compound B-1 plus no treatment control, in 3 columns each of 6 wells. Bleomycin (plus ‘no treatment’ control) was added to 9 wells in rows of this plate. Similar 6×3 matrices were set up for additional agents with different starting concentrations for compound dilutions. For cisplatin experiments the starting concentration was 30 μM which was diluted 1:3. […] For doxorubicin hydrochloride experiments the starting concentration was 5 μM doxorubicin which was diluted 1:3. For gemcitabine experiments the starting concentration was 5 μM gemcitabine which was diluted 1:3. […]
smiles,measurement,setting,value
CNC(=O)c1ccnc2c([C@H](C)CNc3cc(-c4cnc(C)nc4)ncn3)cccc12 [Compound B-1],tumors that showed synergy or additivity,5 tumors,100%
same,Average Bliss score,"tumor ESX005, Esophageal",−1
same,Synergy/Additivity/Antagonism,"tumor ESX005, Esophageal",Additive (Values between 5 and −5 are considered additive)
same,Average Bliss score,"tumor ESX008, Esophageal",−2
same,Synergy/Additivity/Antagonism,"tumor ESX008, Esophageal",Additive (Values between 5 and −5 are considered additive)
same,Average Bliss score,"tumor GAX001, Gastric",6
same,Synergy/Additivity/Antagonism,"tumor GAX001, Gastric",Synergistic (greater than 5 are considered synergistic)
same,Average Bliss score,"tumor GAX007, Gastric",0
same,Synergy/Additivity/Antagonism,"tumor GAX007, Gastric",Additive (Values between 5 and −5 are considered additive)
same,Average Bliss score,"tumor GAX027, Gastric",4
same,Synergy/Additivity/Antagonism,"tumor GAX027, Gastric",Additive (Values between 5 and −5 are considered additive)
